Measurements reported in patent US11840531B2, “CDK8/19 inhibitors” (JOINT STOCK COMPANY “BIOCAD”, priority 2018, dated 2023).

What was measured:
[1] = Stability of the compounds in human blood plasma; type: in vitro ADME; settings: pooled human blood plasma, 10 μM, 4 hours at 37° C.
Experimental: To assess the blood plasma stability of the compounds, we used pooled human blood plasma taken from ten healthy donors. The initial candidate solution (10 mM in DMSO) was diluted with pooled blood plasma to a concentration of 10 μm (test solution). The test solution was incubated in a dry block thermostat for 4 hours at 37° C. HPLC with Agilent 1200 liquid chromatography system (Agilent, USA) was employed to determine peak areas of the compounds in test samples, said peak areas corresponding to the initial test time (prior to incubation) and the final test time (after incubation in a dry block thermostat for 4 hours at 37° C.), proteins were preliminarily precipitated with acetonitrile. Chromatographic analysis was performed in a gradient elution regime with a flow rate of 1 mL/min Substance amount in % in a sample after thermostatting was determined.
The stability of the compounds was estimated. The compounds described herein show at least 90% chemical stability, i.e. they are chemically stable in human blood plasma (Table 2).

[2] = Permeability through Caco-2 cell monolayer; type: in vitro ADME; settings: human; for Papp A→B at 2 h, 10 μM: Caco-2, A→B, pH 6.5/7.4, 2 hour incubation; for efflux ratio at 2 h, 10 μM: Caco-2, Papp B-A/Papp A-B
Experimental: Estimation of permeability through Caco-2 cell monolayer enables assessment of the ability of the substances to penetrate through biological membranes by means of both active and passive transport.
Intestinal epithelial cells Caco-2 were grown on filter inserts (pore size 0.4 jam, BD Falcon with High Density) for 21 days; monolayer integrity was then checked using Lucifer Yellow (Sigma-Aldrich, USA) according to the standard protocol. In A→B transfer (“intestinal lumen”-“blood stream” transfer), solutions of the test substances in buffer, pH 6.5 (HBSS, 10 mM HEPES, 15 mM glucose) at a concentration of 10 μM were added to the upper chamber; whereas the lower chamber was filled with buffer, pH 7.4 (HBSS, 10 mM HEPES, 15 mM Glucose, 1% BSA). In B→A transfer (“blood stream”-“intestinal lumen” transfer), the upper chamber was filled with buffer, pH 6.5, whereas the solutions of the test substances in buffer, pH 7.4, at a concentration of 10 μM were added to the lower chamber. A highly permeable substance propranolol was used as a control.
After 2 hour incubation at 37° C. under an atmosphere containing 5% CO2, the amounts of the test substances in the upper and lower chambers were measured by HPLC using an Agilent1200 HPLC system (Agilent, USA), proteins were preliminarily precipitated with acetonitrile. Chromatographic analysis was performed in a gradient elution regime with a flow rate of 1 mL/min. The peak areas corresponding to the compounds were detected on chromatograms. Based on the peak areas of a compound in the calibration standards, concentration of the compound in the initial solution and in the samples from upper chamber wells and lower chamber wells was measured.
Cellular permeability coefficient Papp was calculated by the formula: Papp=(Ca(t)*Va)/(Cd(0)*t*Area), where Papp is the effective permeability constant, m/s V is the volume of solution (0.8 ml in A→B test, 0.2 ml in B→A test), ml Area is the membrane surface area (0.33 cm^2), cm^2 t is the time of incubation (7200 sec), sec Cd(0) is the initial solution concentration, μM Ca(t) is the concentration of the solution after 2 hours (the concentration in the sample from the well of the lower chamber in A→B test; the concentration in the sample from the well of the top chamber in B→A test), μM
The value was calculated by the following formula: efflux=Papp B-A/Papp A-B, where Pape A-B-direct A→B test permeability value Papp B-A-reverse B→A test permeability value

CDK8/Cyclin C = CDK8/Cyclin C (Homo sapiens (Human), UniProt P49336); assay: LanthaScreen binding to recombinant CDK8/Cyclin C; settings: TR-FRET, Tracer 236 10 nM, CDK8/Cyclin C 5 nM
Sequence of CDK8/Cyclin C (P49336 whole entry): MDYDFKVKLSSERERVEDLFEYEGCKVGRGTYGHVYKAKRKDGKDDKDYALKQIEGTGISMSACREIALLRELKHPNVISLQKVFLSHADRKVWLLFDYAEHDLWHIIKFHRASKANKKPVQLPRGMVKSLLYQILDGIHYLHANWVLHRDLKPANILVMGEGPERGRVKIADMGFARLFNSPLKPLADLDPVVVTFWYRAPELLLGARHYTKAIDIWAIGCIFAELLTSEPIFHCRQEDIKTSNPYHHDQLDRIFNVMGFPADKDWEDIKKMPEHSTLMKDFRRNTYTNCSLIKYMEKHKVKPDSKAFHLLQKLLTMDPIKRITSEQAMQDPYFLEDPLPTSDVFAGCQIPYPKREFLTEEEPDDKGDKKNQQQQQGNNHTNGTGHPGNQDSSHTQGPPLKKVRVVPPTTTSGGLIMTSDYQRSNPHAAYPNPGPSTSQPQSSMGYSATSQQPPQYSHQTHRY
Sequence of CDK8/Cyclin C (P24863 whole entry partner): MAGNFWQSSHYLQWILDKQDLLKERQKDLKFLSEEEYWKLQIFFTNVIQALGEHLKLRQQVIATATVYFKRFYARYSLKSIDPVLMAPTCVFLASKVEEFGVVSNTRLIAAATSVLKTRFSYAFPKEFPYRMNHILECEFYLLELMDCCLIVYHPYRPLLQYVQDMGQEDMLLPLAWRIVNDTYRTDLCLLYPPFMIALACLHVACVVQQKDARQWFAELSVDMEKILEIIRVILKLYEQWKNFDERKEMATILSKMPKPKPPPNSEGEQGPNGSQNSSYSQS
Experimental: Capability of compounds of the present invention to bind to CDK8 protein was detected using LanthaScreen (ThermoFisher) assay. We detected FRET signal proportional to the amount of CDK8-bound fluorescently-labeled ligand (Tracer 236) that competes with inhibitor for ATP binding site. We carried out the measurements in a 15 μl reaction volume using a 384-well plate (Corning, #CLS4513). Enzyme CDK8/Cyclin C (ThermoFisher, #PR7261B) was mixed with antibodies Anti-His-tag-Biotin (ThermoFisher, #PV6090), Streptavidin-Eu (ThermoFisher, #PV6025), the resulting mixture was added to plate wells (5 MKπ/well). Final concentrations of substances were as follows: CDK8/Cyclin C—5 nM, Streptavidin-Eu—3 nM, Anti-His-tag-Biotin—3 nM. Staurosporine (S4400, Sigma) was used as a reference inhibitor, and 0.1% solution of dimethyl sulphoxide (DMSO) in reaction buffer was used as a blank, the reaction buffer comprised 250 mM HEPES (pH 7.5), 50 mM MgCl2, 5 mM EGTA, and 0.05% Brij-35.
The inhibitors and controls in question were added to corresponding wells (5 μl/well). The plate was incubated at room temperature for 20 minutes. After incubating, 5 μl/well of tracer solution Alexa Fluor-647 (Kinase Tracer 236, ThermoFisher, #PV5592)) was added to the wells. Final concentration of tracer was 10 nM. Reaction buffer, instead of tracer solution, was used as a negative control. The plate was incubated for 40 minutes at 25° C., TR-FRET signal was then measured according to the manufacturer's guidelines on SPARK20 plate reader (Tecan, Switzerland), and the value was converted to the amount of kinase-bound tracer. IC50 values were calculated using SparkControl Magellan 1.2 software (Tecan, Switzerland) approximating experimental points by four-parameter logistic model with the optimization by Levenberg-Marquardt (Table 5).

MV4-11 cells = assay: Antiproliferative activity, MV4-11 cells (AlamarBlue); type: cell-based; settings: Homo sapiens, 120 h incubation, read-out: MV-4-11 IC50
Experimental: (§1) Antiproliferative activity of CDK8 inhibitors according to the present invention was measured in a cell-based test on continuous cell cultures MV4-11 (biphenotypic myelomonocytic leukemia, ATCC® CRL-9591™), KG-1 (acute myeloid leukemia, ATCC® CCL-246™) using a vital stain AlamarBlue (ThermoFisher, #DAL1100). The cells were grown in RPMI-1640 (PanEco, #C330p) medium with addition of 10% FBS (Gibco, #16140-071); washed and resuspended in culture medium with 10% FBS (Gibco, #16140-071) in 96-well culture plates (Corning, #3599) with ≈10×10^3 cells in […] of medium per well. The compounds in question were dissolved in DMSO and diluted with a medium with 10% FBS (Gibco, #16140-071) to a final concentration ranging from 0 to 100 μM. […] of diluted compounds were then added to each well (final DMSO concentration was less than 1%) and incubated under 5% CO2 atmosphere at 37° C. for 120 h. After incubating, 15 μL/well of AlamarBlue (ThermoFisher, #DAL1100) reagent was added, contents of plates were mixed in an orbital shaker (Biosan, Latvia) and further incubated for 3-5 h at 37° C. under 5% CO2 atmosphere. Number of living cells was estimated using a microplate spectrophotometer (Tecan Infinite M200Pro, Switzerland) measuring fluorescent signal at the excitation wavelength (λEx) of 540 nm and emission wavelength (λEm) of 590 nm.
(§2) IC50 values were calculated using Magellan 7.2 software (Tecan, Switzerland) approximating experimental points by four-parameter logistic model with the optimization by Levenberg-Marquardt (Table 6).

KG-1 cells = assay: Antiproliferative activity, KG-1 cells (AlamarBlue); type: cell-based; settings: Homo sapiens, KG-1, 120 h, 120 h incubation
Experimental: as §1, §2

[3] = General cytotoxicity on HepG2 cells; type: cell-based; settings: human, 72 h incubation
Experimental: The CC50 values were determined in the test for General cytotoxicity On HepG2 cells (hepatocellular carcinoma, ATCC® HB-8065™). Cells per well were seeded in 96-well plates (Corning, #3599) at a concentration ≈20×10^3 cells in 100 μL of medium and incubated for 72 h with added compounds within the range of concentrations of 200 to 0.78 μM. Cell viability was assessed using the above method.

[4] = Enzyme stability in human liver microsomes (Phase I); type: in vitro ADME; settings: pH 7.4; 0.5 mg/mL pooled human liver microsomes, 10 μM compound, 37° C.
Experimental: Measuring of enzyme stability of the present compounds enabled estimation of their stability towards the action of Phase I biotransformation enzymes.
The rate of enzymatic decomposition of a compound was detected by incubating the reaction mixture in a dry block heater at 37° C.; the reaction mixture contained 0.5 mg/mL of pooled human liver microsomes (XenoTech, USA, cat #H6010), 10 μM of a compound, 2 mM β-nicotinamide adenine dinucleotide (Carbosynth, UK, cat #NN10871) and 4 mM of magnesium chloride in 0.1M sodium phosphate buffer (pH=7.4). The reaction was quenched with acetonitrile (100 μL of acetonitrile/100 μL of the reaction mixture). After quenching, the samples were centrifuged at 10000 rpm for 10 minutes. Supernatant fluid was tested by chromatographic technique using Agilent1200 (Agilent, USA). Chromatographic analysis was performed in a gradient elution regime with a flow rate of 1 mL/min. A graph of the logarithm of substance's peak area as a function of time was made. The dependent factor of the line corresponded to the elimination rate constant K based on which the drug's half-lif½e T and degradation rate CLint were calculated:
Based on the data obtained, candidates' enzyme stability in human liver microsomes was determined.

[5] = Enzyme stability in human liver S9 fractions (Phase II); type: in vitro ADME; settings: pH 7.4; 0.5 mg/mL pooled human liver S9 fractions, 10 μM compound, 37° C.; read-out: Enzyme stability Liver S9 fraction CLint
Experimental: Measuring of enzyme stability of the present compounds enabled estimation of their stability towards the action of Phase II biotransformation enzymes.
Enzyme degradation rate was measured by incubating the reaction mixture in a dry block thermostat at 37° C., said reaction mixture comprising 0.5 mg/mL of pooled human liver S9 fractions (XenoTech, USA, cat #H0610), 10 μM compound, 2 mM β-nicotinamide adenine dinucleotide (Carbosynth, UK, cat #NN10871) and 4 mM magnesium chloride in 0, 1 M sodium-phosphate buffer, pH=7, 4. The reaction was quenched with acetonitrile (100 μL of acetonitrile/100 μL of the reaction mixture). After quenching, the samples were centrifuged at 10000 rpm for 10 minutes. Supernatant fluid was tested by chromatographic technique using Agilent1200 (Agilent, USA). Chromatographic analysis was performed in a gradient elution regime with a flow rate of 1 mL/min A graph of the logarithm of substance's peak area as a function of time was made. The dependent factor of the line corresponded to the elimination rate constant K based on which the drug's half-life T½ and degradation rate CLint were calculated:
Based on the data obtained, candidates' enzyme stability in human liver S9 fractions was determined.

| Chemical stability in human blood plasma 4 h, % [1] [%] | Papp A→B at 2 h, 10 μM [2] [×10⁻⁶ cm/s] | efflux ratio at 2 h, 10 μM [2] | IC50 (CDK8/Cyclin C) [nM] | IC50 (MV4-11 cells) [nM] | microsomal CLint at 10 μM [4] [µL/min/mg] | microsomal CLint at 10 μM [5] [µL/min/mg] | SMILES | IC50 (KG-1 cells) [nM] | CC50 at 72 h [3] [nM] |
| --- | --- | --- | --- | --- | --- | --- | --- | --- | --- |
| 100.0 | 15.7 | 1.89 | 0.88 | 0.5 |  |  | CN(C)C(=O)Cn1cc(-c2ccc(-c3cnc(N)c4ncc(C(=O)NCC5CC5)cc34)cc2)cn1 [Compound 3.43, 8-Amino-N-(cyclopropylmethyl)-5-(4-(1-(2-(dimethylamino)-2-oxoethyl)-1H-pyrazole-4-yl)phenyl)-1,7-naphthyridine-3-carboxamide] | 0.2 | 68100 |
| 96.5 |  |  | 1.11 | 0.7 | 2.6 | 0.5 | CN(C)C(=O)Cn1cc(-c2ccc(-c3cnc(N)c4ncc(C(=O)NC5CC5)cc34)cc2)cn1 [Compound 3.46, 8-amino-N-cyclopropyl-5-(4-(1-(2-(dimethylamino)-2-oxoethyl)-1H-pyrazole-4-yl)phenyl)-1,7-naphthyridine-3-carboxamide] | 1.1 | > 100000 |
| 96.5 |  |  | 1.1 | 1.1 | 5.6 | 1.5 | CN1CCN(C(=O)Cn2cc(-c3ccc(-c4cnc(N)c5ncc(C(=O)NC6CC6)cc45)cc3)cn2)CC1 [Compound 3.47, 8-amino-N-cyclopropyl-5-(4-(1-(2-(4-methylpiperazin-1-yl)-2-oxoethyl)-1H-pyrazole-4-yl)phenyl)-1,7-naphthyridine-3-carboxamide] | 3.3 | > 100000 |
| 100.0 |  |  | 1.85 | 2.8 | 7 | 1.4 | CN1CCN(C(=O)c2cnc3c(N)ncc(-c4ccc(-c5cnn(CC(=O)N(C)C)c5)cc4)c3c2)CC1 [Compound 3.49, 2-(4-(4-(8-amino-3-(4-methylpiperazine-1-carbonyl)-1,7-naphthyridine-5-yl)phenyl) -1H-pyrazole-1-yl)-N,N-dimethylacetamide] | 12.9 | > 100000 |
| 100.0 | 26.2 | 1.88 | 1.44 | 16.9 |  |  | COCCn1cc(-c2ccc(-c3cnc(N)c4ncc(C(=O)N5CCN(C)CC5)cc34)cc2)cn1 [Compound 3.51, (8-amino-5-(4-(1-(2-methoxyethyl)-1H-pyrazole-4-yl)phenyl)-1,7-naphthyridin-3-yl)(4-methylpiperazine-1-yl)methanone] | 12.9 | > 100000 |
| 94.6 | 42.8 | 0.55 | 1.27 | 15.8 |  |  | COCCn1cc(-c2ccc(-c3cnc(N)c4ncc(C(=O)N5CCC5)cc34)cc2)cn1 [Compound 3.54, (8-amino-5-(4-(1-(2-methoxyethyl)-1H-pyrazole-4-yl)phenyl)-1,7-naphthyridin-3-yl) (azetidin-1-yl)methanone] | 12.2 | ~90000 |
